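Exposure lasted 48 hours, with cells grown in 96-well plates and compounds tested at five concentrations. GI50 marks 50% less growth.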 Activity calls are given as the source filed them. No stated cut-off is given here; in the data, active = GI50 up to about 1.1 µM and inactive = higher.

The source of these data is ChEMBL document CHEMBL1201862, “PubChem BioAssay data set” (2004).

Among the test systems are OVCAR-4; COLO 205; CAKI-1; OVCAR-3; LOX IMVI; SF-268; EKVX; CCRF-CEM; RPMI-8226; SF-295; SNB-19; A549; OVCAR-5; SK-MEL-5; 786-0; SF-539; NCI-H522.
What all share (assay): NCI tumour cell line growth inhibition, 48 h

`O=C(Nc1ccccc1C(=O)NC(=O)c1ccccc1NC(=O)c1ccccc1)c1ccccc1`: the GI50 with OVCAR-4 is 3.41 µM (inactive); in the assay with COLO 205, 1.46 µM (inactive); in the assay with CAKI-1, 10.6 µM (inactive); in the assay with OVCAR-3 it was 3.29 µM (inactive); with LOX IMVI, 2.24 µM (inactive); in the assay with SF-268, 6.85 µM (inactive). Also, the GI50 is 8.71 µM (inactive) in the assay on EKVX; 3.91 µM (inactive) in the assay on CCRF-CEM; 1.46 µM (inactive) with RPMI-8226; 10.8 µM (inactive) in the assay with SF-295; 7.36 µM (inactive) with SNB-19; 7.53 µM (inactive) in the assay on A549. For the same molecule, the GI50 is 3.6 µM (inactive) with OVCAR-5, 2.9 µM (inactive) with SK-MEL-5, 12 µM (inactive) in the assay on 786-0 and 5.09 µM (inactive) in the assay on SF-539.

For the molecule `COc1cc(Nc2cnc3cc(C(F)(F)F)ccc3n2)cc(OC)c1OC`, the GI50 in the assay with COLO 205, in the assay with OVCAR-3, in the assay with LOX IMVI, in the assay on SF-268, in the assay with EKVX and with CCRF-CEM was > 100 µM (inactive) throughout. Further, the GI50 in the assay with RPMI-8226, in the assay with SF-295, with SNB-19, with A549, in the assay on OVCAR-5 and with 786-0 was > 100 µM (inactive) throughout. Moreover, the GI50 with SF-539 is > 100 µM (inactive).

In the case of `COc1c(I)c(OC)c2c(c1I)O[C@@H]1OCC[C@H]21`, the GI50 in the assay with OVCAR-4 is 23.6 µM (inactive); with COLO 205, 20 µM (inactive); in the assay with CAKI-1, 0.098 µM (active); in the assay on OVCAR-3 it was 27.7 µM (inactive); with LOX IMVI, 32.4 µM (inactive); with EKVX it was 74.8 µM (inactive). Also, the GI50 in the assay with CCRF-CEM was 27.5 µM (inactive); with RPMI-8226, 19.7 µM (inactive); in the assay with SF-295, 38.2 µM (inactive); with SNB-19, 77.1 µM (inactive); with A549, 34 µM (inactive); in the assay with OVCAR-5, 41.1 µM (inactive). Besides, the GI50 is 13.7 µM (inactive) in the assay with SK-MEL-5, 34.8 µM (inactive) in the assay with 786-0 and > 100 µM (inactive) in the assay with SF-539.

Regarding `Cc1ccc(S(=O)(=O)NC(=O)C#CCOC2CCCCO2)cc1` (centres undefined), the GI50 with OVCAR-4, in the assay with CAKI-1, in the assay with OVCAR-3, in the assay on LOX IMVI, in the assay on EKVX and in the assay on CCRF-CEM was > 100 µM (inactive) in each case. For the same molecule, the GI50 in the assay on RPMI-8226, with SF-295, in the assay on SNB-19, in the assay on A549, with OVCAR-5 and in the assay on SK-MEL-5 was > 100 µM (inactive) each time. The GI50 in the assay on 786-0 and in the assay on SF-539 was > 100 µM (inactive) in each case.

For `COC(=O)C(=C/c1ccc(OC)cc1)/C(C(=O)O)=C(/C)c1ccccc1`, the GI50 in the assay on OVCAR-4, in the assay with NCI-H522, with COLO 205, with CAKI-1, with OVCAR-3 and with LOX IMVI was > 100 µM (inactive) in each case. The GI50 in the assay with EKVX, in the assay on CCRF-CEM, in the assay with RPMI-8226, in the assay on SF-295, in the assay on SNB-19 and in the assay with A549 was > 100 µM (inactive) throughout. The GI50 in the assay with OVCAR-5, in the assay on SK-MEL-5, in the assay with 786-0 and in the assay with SF-539 was > 100 µM (inactive) in each case.

With `COc1ccccc1NC(=O)NS(=O)(=O)c1ccccc1`, the GI50 in the assay with OVCAR-4 is > 100 µM (inactive); in the assay on NCI-H522 it was 63.7 µM (inactive); in the assay on COLO 205, > 100 µM (inactive); in the assay on CAKI-1, 91.6 µM (inactive); in the assay with LOX IMVI, > 100 µM (inactive); in the assay on SF-268, > 100 µM (inactive). Moreover, the GI50 is 88.7 µM (inactive) with EKVX; > 100 µM (inactive) with SF-295; > 100 µM (inactive) with SNB-19; > 100 µM (inactive) in the assay with A549; > 100 µM (inactive) with OVCAR-5; > 100 µM (inactive) in the assay on SK-MEL-5. Also, the GI50 in the assay with 786-0 and in the assay with SF-539 was > 100 µM (inactive) throughout.

Take `C#CC(C)(C)Oc1cc(O)c2c(=O)c3ccccc3n(C)c2c1`: the GI50 in the assay on OVCAR-4 was > 100 µM (inactive); in the assay on NCI-H522, > 100 µM (inactive); with COLO 205, > 100 µM (inactive); in the assay with CAKI-1, > 100 µM (inactive); in the assay on OVCAR-3, > 100 µM (inactive); in the assay with LOX IMVI it was 19.3 µM (inactive). The GI50 is > 100 µM (inactive) in the assay on SF-268; > 100 µM (inactive) in the assay with EKVX; 45.2 µM (inactive) in the assay on CCRF-CEM; > 100 µM (inactive) in the assay with SF-295; > 100 µM (inactive) in the assay on SNB-19; > 100 µM (inactive) in the assay with A549. Besides, the GI50 in the assay with OVCAR-5 is > 100 µM (inactive); in the assay on SK-MEL-5 it was > 100 µM (inactive); in the assay on 786-0, 53.3 µM (inactive); in the assay on SF-539, 15.5 µM (inactive).

`CCCCOC(=O)NC(=O)c1cn(CCCOC(=O)CCCCCCCCC(=O)OCCCn2cc(C(=O)NC(=O)OCCCC)c(=O)[nH]c2=O)c(=O)[nH]c1=O`: the GI50 in the assay on OVCAR-4, with COLO 205, in the assay on OVCAR-3, with LOX IMVI, in the assay on SF-268 and in the assay on EKVX was > 100 µM (inactive) throughout. In addition, the GI50 in the assay on CCRF-CEM, in the assay with RPMI-8226, in the assay with SF-295, in the assay on SNB-19, in the assay on A549 and in the assay with OVCAR-5 was > 100 µM (inactive) in each case. Besides, the GI50 with SK-MEL-5, with 786-0 and in the assay with SF-539 was > 100 µM (inactive) throughout.

On to `C=C1CC2OC(=O)C(=C)C2C(O)C2C(=C)CCC12` (centres undefined), for which the GI50 is 3.78 µM (inactive) in the assay with COLO 205; 5.25 µM (inactive) with CAKI-1; 10.1 µM (inactive) in the assay with OVCAR-3; 16.7 µM (inactive) with SF-268; 6.98 µM (inactive) with EKVX; 2.24 µM (inactive) with CCRF-CEM. Further, the GI50 in the assay on RPMI-8226 is 2.81 µM (inactive); in the assay on SF-295, 10.9 µM (inactive); in the assay with SNB-19, 16.2 µM (inactive); in the assay on A549, 14.4 µM (inactive); with OVCAR-5, 12.3 µM (inactive); in the assay on SK-MEL-5, 12.2 µM (inactive). The GI50 in the assay on 786-0 is 13.4 µM (inactive); in the assay with SF-539, 3.69 µM (inactive).

As to `O=C1C2C3C=C4c5ccccc5N(c5ccccc5)C4([C@@H]2C(=O)N1c1ccc(F)cc1)[C@H]1C(=O)N(c2ccc(F)cc2)C(=O)[C@@H]31` (some centres undefined), the GI50 in the assay on NCI-H522 is > 100 µM (inactive); in the assay with COLO 205, > 100 µM (inactive); in the assay with OVCAR-3, > 100 µM (inactive); in the assay on LOX IMVI, > 100 µM (inactive); in the assay on SF-268, 37.2 µM (inactive); in the assay on EKVX, > 100 µM (inactive). Also, the GI50 with CCRF-CEM, in the assay on RPMI-8226, with SF-295, with SNB-19, in the assay on A549 and with OVCAR-5 was > 100 µM (inactive) throughout. Moreover, the GI50 with 786-0 and in the assay on SF-539 was > 100 µM (inactive) each time.

As to `Cc1cc(Cl)ccc1NC(=O)CCCC(=O)C1C/C(=N/O)CC/C1=N\O` (centres undefined), the GI50 with OVCAR-4, in the assay with NCI-H522, in the assay on COLO 205, with CAKI-1, in the assay on OVCAR-3 and in the assay with SF-268 was > 100 µM (inactive) throughout. The GI50 in the assay with EKVX, in the assay on CCRF-CEM, in the assay on RPMI-8226, in the assay with SF-295, in the assay with SNB-19 and with A549 was > 100 µM (inactive) each time. For the same molecule, the GI50 in the assay with OVCAR-5, in the assay on SK-MEL-5, with 786-0 and in the assay with SF-539 was > 100 µM (inactive) each time.

Take `CC1=C(C(=O)NCc2ccccc2)C(/C=C/c2ccccc2)C(C(=O)NCc2ccccc2)=C(C)N1`: the GI50 in the assay with OVCAR-4, with CAKI-1, in the assay on OVCAR-3, with LOX IMVI, in the assay on SF-268 and with EKVX was > 100 µM (inactive) each time. For the same molecule, the GI50 with CCRF-CEM, in the assay on RPMI-8226, in the assay with SF-295, in the assay on SNB-19, with A549 and with OVCAR-5 was > 100 µM (inactive) in each case. The GI50 in the assay on SK-MEL-5, in the assay on 786-0 and with SF-539 was > 100 µM (inactive) throughout.

On to `COc1ccc2c(c1)[n+]([O-])c(/C(C)=N/NC(=O)c1ccccc1O)c(C)[n+]2[O-]`, for which the GI50 in the assay on OVCAR-4, in the assay with NCI-H522, in the assay with CAKI-1, with OVCAR-3, with LOX IMVI and in the assay with SF-268 was > 100 µM (inactive) each time. The GI50 in the assay on EKVX, in the assay on CCRF-CEM, with RPMI-8226, with SF-295, with SNB-19 and in the assay with A549 was > 100 µM (inactive) each time. Besides, the GI50 in the assay on OVCAR-5, in the assay on SK-MEL-5, in the assay on 786-0 and in the assay on SF-539 was > 100 µM (inactive) in each case.
